Laboratory results reported in patent US20240327364A1, “THERAPEUTIC TARGETING OF GPR68 TO INDUCE FERROPTOSIS” (University Of Maryland, Baltimore, priority 2023, published 2024).

How the values were obtained:
[1] = target: T1, RSK3(Kin.Dom.1-N-terminal) (Homo sapiens, UniProt Q15349); experiment: KinomeScan; format: binding; conditions: read-out: % Control
T1 construct: RSK3(Kin.Dom.1-N-terminal); purchased DiscoveRx (Fremont, CA)

[2] = target: T2, LATS2 (Homo sapiens, UniProt Q9NRM7); experiment: KinomeScan; format: binding; conditions: read-out: % Control
T2 construct: purchased DiscoveRx

[3] = target: T3, PIK3CA(H1047L) (Homo sapiens, UniProt P42336, H1047L); experiment: KinomeScan; format: binding; conditions: read-out: % Control
T3 construct: purchased DiscoveRx (Fremont, CA)

[4] = target: T4, NDR2 (Homo sapiens, UniProt Q9Y2H1); experiment: KinomeScan; format: binding; conditions: read-out: % Control
T4 construct: purchased DiscoveRx

[5] = target: T5, OPRD1 (Homo sapiens, UniProt P41143); experiment: GPCR Profiler; format: cell-based
T5 construct: host or cells: Chem-1 cells expressing Gα15
T5 sequence (P41143 whole entry, species assumed): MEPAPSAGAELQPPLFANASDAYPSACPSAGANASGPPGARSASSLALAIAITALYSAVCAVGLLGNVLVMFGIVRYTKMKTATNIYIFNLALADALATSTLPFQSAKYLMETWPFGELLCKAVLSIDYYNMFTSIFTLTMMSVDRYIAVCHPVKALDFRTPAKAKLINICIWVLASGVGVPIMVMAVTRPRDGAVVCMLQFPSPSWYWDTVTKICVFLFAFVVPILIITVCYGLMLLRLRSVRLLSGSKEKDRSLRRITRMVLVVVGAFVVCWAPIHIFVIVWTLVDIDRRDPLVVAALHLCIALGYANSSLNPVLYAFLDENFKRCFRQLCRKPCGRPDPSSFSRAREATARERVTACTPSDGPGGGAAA

[6] = target: T6, AKT3 (Homo sapiens, UniProt Q9Y243); experiment: KinomeScan; format: binding; conditions: read-out: % Control
T6 construct: purchased DiscoveRx (Fremont, CA)

[7] = target: T7, M2 (Homo sapiens, UniProt P08172); experiment: GPCR Profiler; format: cell-based
T7 construct: host or cells: Chem-1 cells with promiscuous Gα15
T7 sequence (P08172 whole entry): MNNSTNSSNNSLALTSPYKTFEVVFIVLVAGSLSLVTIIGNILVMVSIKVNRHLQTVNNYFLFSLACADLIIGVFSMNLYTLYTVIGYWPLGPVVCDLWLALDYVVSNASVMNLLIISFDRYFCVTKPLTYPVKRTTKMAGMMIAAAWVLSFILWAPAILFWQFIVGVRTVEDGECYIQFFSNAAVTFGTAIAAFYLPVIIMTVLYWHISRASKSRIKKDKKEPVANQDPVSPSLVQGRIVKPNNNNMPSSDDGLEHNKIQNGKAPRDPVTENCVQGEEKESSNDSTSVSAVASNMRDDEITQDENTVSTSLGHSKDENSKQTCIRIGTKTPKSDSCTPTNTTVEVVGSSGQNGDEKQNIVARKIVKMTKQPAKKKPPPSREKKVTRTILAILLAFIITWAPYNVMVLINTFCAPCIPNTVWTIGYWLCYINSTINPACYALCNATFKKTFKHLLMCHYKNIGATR

[8] = target: T8, LCK (Homo sapiens, UniProt P06239); experiment: KinomeScan; format: binding; conditions: read-out: % Control
T8 construct: purchased DiscoveRx

[9] = target: T9, KIT(V559D, T670I) (Homo sapiens, UniProt P10721, T670I/V559D); experiment: KinomeScan; format: binding; conditions: read-out: % Control
T9 construct: purchased DiscoveRx
T9 sequence (P10721 26-976 V559D/T670I): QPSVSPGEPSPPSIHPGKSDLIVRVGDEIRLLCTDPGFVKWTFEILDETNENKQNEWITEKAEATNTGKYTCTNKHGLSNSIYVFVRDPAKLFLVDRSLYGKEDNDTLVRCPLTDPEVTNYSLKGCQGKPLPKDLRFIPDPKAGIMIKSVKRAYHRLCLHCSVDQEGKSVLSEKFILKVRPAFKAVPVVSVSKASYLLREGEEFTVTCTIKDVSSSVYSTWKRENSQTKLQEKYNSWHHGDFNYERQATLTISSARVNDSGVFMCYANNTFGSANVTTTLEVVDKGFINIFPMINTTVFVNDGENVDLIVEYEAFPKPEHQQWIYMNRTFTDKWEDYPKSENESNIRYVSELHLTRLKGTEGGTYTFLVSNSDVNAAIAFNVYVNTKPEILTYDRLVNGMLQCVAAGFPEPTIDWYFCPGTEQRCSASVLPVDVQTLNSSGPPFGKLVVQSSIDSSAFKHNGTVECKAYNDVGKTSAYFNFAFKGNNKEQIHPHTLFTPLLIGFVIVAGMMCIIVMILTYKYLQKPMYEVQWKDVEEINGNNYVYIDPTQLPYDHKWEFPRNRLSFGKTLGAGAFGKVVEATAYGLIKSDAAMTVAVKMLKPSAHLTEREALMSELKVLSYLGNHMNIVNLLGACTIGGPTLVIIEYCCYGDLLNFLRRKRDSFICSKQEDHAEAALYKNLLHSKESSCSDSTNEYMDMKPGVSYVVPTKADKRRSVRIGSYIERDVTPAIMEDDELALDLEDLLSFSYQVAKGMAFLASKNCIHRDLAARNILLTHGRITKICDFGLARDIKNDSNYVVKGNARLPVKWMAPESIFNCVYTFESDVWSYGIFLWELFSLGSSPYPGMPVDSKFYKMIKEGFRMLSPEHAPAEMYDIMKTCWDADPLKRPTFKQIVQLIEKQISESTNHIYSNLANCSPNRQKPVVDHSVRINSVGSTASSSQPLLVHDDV

[10] = target: T10, PAK1 (Homo sapiens, UniProt Q13153); experiment: KinomeScan; format: binding; conditions: read-out: % Control
T10 construct: purchased DiscoveRx

[11] = target: T11, LRRK2 (Homo sapiens, UniProt Q5S007); experiment: KinomeScan; format: binding; conditions: read-out: % Control
T11 construct: purchased DiscoveRx

[12] = target: T12, PRKCH (Homo sapiens, UniProt P24723); experiment: KinomeScan; format: binding; conditions: read-out: % Control
T12 construct: purchased DiscoveRx (Fremont, CA)

[13] = target: T13, M3 (Homo sapiens, UniProt P20309); experiment: GPCR Profiler; format: cell-based
T13 construct: host or cells: Chem-1 cells with promiscuous Gα15
T13 sequence (P20309 whole entry): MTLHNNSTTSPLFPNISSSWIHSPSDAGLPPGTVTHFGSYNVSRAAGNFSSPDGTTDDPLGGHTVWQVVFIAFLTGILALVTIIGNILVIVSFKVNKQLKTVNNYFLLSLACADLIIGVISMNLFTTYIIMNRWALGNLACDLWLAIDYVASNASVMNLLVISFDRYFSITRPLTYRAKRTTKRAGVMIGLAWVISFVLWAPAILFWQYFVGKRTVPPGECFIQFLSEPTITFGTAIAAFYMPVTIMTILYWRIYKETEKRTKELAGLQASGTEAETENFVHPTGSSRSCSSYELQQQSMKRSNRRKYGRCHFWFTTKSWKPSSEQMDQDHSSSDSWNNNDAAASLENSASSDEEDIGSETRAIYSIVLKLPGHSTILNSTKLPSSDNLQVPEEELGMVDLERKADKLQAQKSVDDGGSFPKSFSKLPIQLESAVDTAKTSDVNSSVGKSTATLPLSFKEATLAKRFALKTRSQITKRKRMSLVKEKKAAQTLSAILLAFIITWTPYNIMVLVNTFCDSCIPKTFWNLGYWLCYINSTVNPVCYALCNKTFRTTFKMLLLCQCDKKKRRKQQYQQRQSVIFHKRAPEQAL

[14] = target: T14, p38-beta (Homo sapiens, UniProt Q15759); experiment: KinomeScan; format: binding; conditions: read-out: % Control
T14 construct: purchased DiscoveRx

[15] = target: T15, D1 (Homo sapiens, UniProt P21728); experiment: GPCR Profiler; format: cell-based
T15 construct: host or cells: Chem-1 cells with Gα15
T15 sequence (P21728 whole entry): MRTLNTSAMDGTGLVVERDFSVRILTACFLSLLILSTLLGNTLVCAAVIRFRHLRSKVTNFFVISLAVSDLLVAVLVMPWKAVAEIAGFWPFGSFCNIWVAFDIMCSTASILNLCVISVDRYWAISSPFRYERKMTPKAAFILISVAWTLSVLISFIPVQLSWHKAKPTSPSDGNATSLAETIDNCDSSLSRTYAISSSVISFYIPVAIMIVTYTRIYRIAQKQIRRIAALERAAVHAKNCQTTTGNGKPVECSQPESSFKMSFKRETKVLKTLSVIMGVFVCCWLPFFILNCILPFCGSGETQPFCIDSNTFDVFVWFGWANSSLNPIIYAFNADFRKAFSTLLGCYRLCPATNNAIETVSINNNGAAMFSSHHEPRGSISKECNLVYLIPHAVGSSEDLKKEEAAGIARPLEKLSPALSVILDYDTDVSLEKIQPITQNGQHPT

[16] = target: T16, ZAK (Homo sapiens, UniProt Q9NYL2); experiment: KinomeScan; format: binding; conditions: read-out: % Control
T16 construct: purchased DiscoveRx
T16 sequence (Q9NYL2 whole entry): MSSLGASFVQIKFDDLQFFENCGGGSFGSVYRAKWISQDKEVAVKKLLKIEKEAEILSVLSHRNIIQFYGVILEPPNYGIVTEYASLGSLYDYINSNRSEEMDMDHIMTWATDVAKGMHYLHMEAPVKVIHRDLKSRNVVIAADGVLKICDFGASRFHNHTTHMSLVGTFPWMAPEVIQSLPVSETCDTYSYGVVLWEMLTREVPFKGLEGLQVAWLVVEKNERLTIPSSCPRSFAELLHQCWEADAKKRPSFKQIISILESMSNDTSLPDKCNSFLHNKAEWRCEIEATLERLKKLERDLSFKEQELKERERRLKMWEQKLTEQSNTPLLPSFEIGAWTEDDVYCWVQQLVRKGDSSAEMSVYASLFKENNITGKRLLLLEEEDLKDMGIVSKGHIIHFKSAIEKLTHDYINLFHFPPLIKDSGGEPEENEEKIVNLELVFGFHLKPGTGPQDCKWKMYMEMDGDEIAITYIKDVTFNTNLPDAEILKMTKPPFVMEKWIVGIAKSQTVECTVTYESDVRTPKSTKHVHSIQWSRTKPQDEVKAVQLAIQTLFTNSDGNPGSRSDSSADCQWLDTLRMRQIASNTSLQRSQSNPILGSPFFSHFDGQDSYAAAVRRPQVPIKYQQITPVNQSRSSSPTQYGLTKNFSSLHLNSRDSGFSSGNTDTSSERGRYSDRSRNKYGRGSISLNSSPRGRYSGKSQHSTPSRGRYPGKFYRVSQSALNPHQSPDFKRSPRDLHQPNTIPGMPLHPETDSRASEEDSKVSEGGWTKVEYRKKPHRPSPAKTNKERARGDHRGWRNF

[17] = target: T17, BRAF (Homo sapiens, UniProt P15056); experiment: KinomeScan; format: binding; conditions: read-out: % Control
T17 construct: purchased DiscoveRx (Fremont, CA)

[18] = target: T18, TAK1 (Homo sapiens, UniProt O43318); experiment: KinomeScan; format: binding; conditions: read-out: % Control
T18 construct: purchased DiscoveRx (Fremont, CA)
T18 sequence (O43318 whole entry): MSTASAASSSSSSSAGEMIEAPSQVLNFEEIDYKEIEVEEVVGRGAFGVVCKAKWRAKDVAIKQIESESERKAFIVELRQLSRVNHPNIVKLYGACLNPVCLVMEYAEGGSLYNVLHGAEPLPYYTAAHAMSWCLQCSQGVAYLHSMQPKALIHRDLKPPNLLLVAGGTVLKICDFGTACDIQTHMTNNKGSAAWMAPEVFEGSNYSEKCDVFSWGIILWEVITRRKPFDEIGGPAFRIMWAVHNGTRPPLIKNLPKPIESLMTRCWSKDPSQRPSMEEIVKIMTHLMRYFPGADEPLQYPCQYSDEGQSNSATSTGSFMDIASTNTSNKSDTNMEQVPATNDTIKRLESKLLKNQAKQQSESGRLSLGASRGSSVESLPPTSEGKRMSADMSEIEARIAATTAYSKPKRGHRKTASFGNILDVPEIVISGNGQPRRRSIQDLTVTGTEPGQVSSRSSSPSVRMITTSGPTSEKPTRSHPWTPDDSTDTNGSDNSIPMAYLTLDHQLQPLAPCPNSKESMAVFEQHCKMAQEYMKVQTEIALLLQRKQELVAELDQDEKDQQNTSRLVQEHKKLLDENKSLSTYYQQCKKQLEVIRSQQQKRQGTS

[19] = target: T19, DYRK2 (Homo sapiens, UniProt Q92630); experiment: KinomeScan; format: binding; conditions: read-out: % Control
T19 construct: purchased DiscoveRx (Fremont, CA), KinomeScan service
T19 sequence (Q92630 whole entry): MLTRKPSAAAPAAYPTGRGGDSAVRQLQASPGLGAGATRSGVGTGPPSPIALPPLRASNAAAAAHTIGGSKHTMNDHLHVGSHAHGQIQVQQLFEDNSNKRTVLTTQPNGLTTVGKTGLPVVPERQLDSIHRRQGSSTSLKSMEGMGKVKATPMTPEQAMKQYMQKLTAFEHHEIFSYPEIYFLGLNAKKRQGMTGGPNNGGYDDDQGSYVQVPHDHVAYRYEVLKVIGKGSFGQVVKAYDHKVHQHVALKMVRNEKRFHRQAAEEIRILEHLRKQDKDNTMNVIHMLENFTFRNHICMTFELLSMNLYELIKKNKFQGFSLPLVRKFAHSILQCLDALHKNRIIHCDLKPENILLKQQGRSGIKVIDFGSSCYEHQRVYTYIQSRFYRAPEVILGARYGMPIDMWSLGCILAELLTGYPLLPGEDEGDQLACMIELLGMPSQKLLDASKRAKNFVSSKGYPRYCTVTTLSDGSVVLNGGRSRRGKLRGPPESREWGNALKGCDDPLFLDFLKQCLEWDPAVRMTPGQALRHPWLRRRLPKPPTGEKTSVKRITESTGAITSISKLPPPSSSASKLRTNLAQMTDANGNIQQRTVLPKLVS

[20] = system: ALI induced by HTV, LPS and both; experiment: HTV mechanical ventilation / LPS acute lung injury; format: in vivo, C57Bl mice
Description: FIG. 38A through FIG. 38D: High-tidal volume (HTV) mechanical ventilation causes ALI and exacerbates ALI caused by LPS (“two-hit”) in C57Bl mice, and OGM2 attenuates these effects. […] Lungs from mice treated with OGM2 are marked with “+”. […] Here, OGM and OGM8345=OGM2.

[21] = system: NCI-H460; experiment: Cell Titer-Glo viability, Lung cancer, Large cell; format: cell-based
Description: OGM2 kills wide variety of cancer cell types. Cell sensitivity can be classified in to Very Sensitive (LC50<2 μM), Sensitive (LC50=2 to 10 μM), Mildly Sensitive (LC50>10 μM), and Refractory (no killing at 10 μM). The listed established cell were incubated with OGM2 at 2 μM or 10 μM for 72 hours under standard cell culture conditions, and relative cell number was assessed using Cell Titer-Glo Luminescent Cell Viability Assay (Promega™) following the manufacturer's instructions. Luminescence was determined using a Cytation 5 reader and Gen5 software package (BioTek™).
Cancer cells, which are very sensitive to killing by OGM2 (LCs <2 μM), with reported mRNA expression of GPR68 and the related proton sensing receptor GPR4. LC50's (concentrations causing 50% lethality) were determined using CellTiter-Glo (Promega™, G7570). Cells were plated in 12-well plates (CELLTREAT Scientific Products, 229112) in 1 ml of DMEM with high glucose, GlutaMAX, HEPES, or RPMI 1640 with Penicillin-Streptomycin (ThermoFisher™, 10564029, 11875119 and 15140122) and 10% FBS. Cells were incubated overnight at 37° C. in 5% CO2. Then 1 mL of fresh media was added with DMSO, OGM, or positive control (Erastin; APExBIO Technology, LLC, B1524) and cells incubated for 3 days. On the third day, all media was removed, cells were rinsed with 1×PBS, PBS was removed, and 200 μL of 1× Passive Lysis Buffer (Promega™, E1941) was added to each well. […]. Subsequently, 20 μL of lysate was added to 100 μL CellTiter-Glo™ reagent on a LUMITRAC 200 plate (Greiner™ bio-one, 82050-726). Plates were briefly spun down and read on a GloMax-Multi Detection System (Promega™).
The cells listed in the tables above were incubated with OGM2 at 2 μM or 10 μM for 72 hours under standard cell culture conditions, and relative cell number was assessed using Cell Titer-Glo Luminescent Cell Viability Assay (Promega™) following the manufacturer's instructions. Luminescence was determined using a Cytation 5 reader and Gen5 software package (BioTek™). RNA expression of GPR68 and GPR4 in the corresponding cancer cell lines are listed, according to the publicly available The Human Protein Atlas version 22.0 and Ensembl version 103.38 (see proteinatlas.org). The consensus normalized expression value (“nTPM”=normalize transcript per million) was calculated as the maximum nTPM value for each gene in the two data sources.

`CCc1ccc2c(c1)C1(NN=C(c3cccc4ccccc34)S1)C(=O)N2` (stereo not shown) [OGM1, 5-ethyl-5′-naphthalen-1-ylspiro[1H-indole-3,2′-3H-1,3,4-thiadiazole]-2-one] was tested, and the remaining binding at 10 µM [1] was 100%, the remaining binding at 10 µM [2] was 100% and the remaining binding at 10 µM [3] was 100%. The remaining binding at 10 µM [4] was 82%, the Antagonism ([5]; 10 uM) was 7.4 and the Agonism ([5]; 12.5 uM) was −0.1. It also gave a remaining binding at 10 µM [6] of 100%, an Antagonism ([7]; 10 uM) of 3.3 and an Agonism ([7]; 12.5 uM) of −0.1. The remaining binding at 10 µM [8] was 100%, the remaining binding at 10 µM [9] was 77% and the remaining binding at 10 µM [10] was 70%. The remaining binding at 10 µM [11] was 100%, the remaining binding at 10 µM [12] was 100% and the Antagonism ([13]; 10 uM) was −1.9. It also gave an Agonism ([13]; 12.5 uM) of 0.7, a remaining binding at 10 µM [14] of 100% and an Antagonism ([15]; 10 uM) of 5. The Agonism ([15]; 12.5 uM) was 0, the remaining binding at 10 µM [16] was 100% and the remaining binding at 10 µM [17] was 96%. The remaining binding at 10 µM [18] was 72% and the remaining binding at 10 µM [19] was 91%.
In the case of `CCc1ccc2c(c1)C1(NN=C(c3ccccc3)S1)C(=O)N2` (stereo not shown) [OGM2], the “lung vascular leak (Evans blue)” value ([20]; OGM2 40 mg/kg ip 15 minutes before HTV) is reported as “significantly attenuated lung vascular leak”, the BAL cell count ([20]; mouse, in vivo) is reported as “significantly attenuated the rise” and the BAL protein concentration ([20]; mouse, in vivo) is reported as “significantly attenuated the rise”. The “inflammatory cytokine mRNA expression” value ([20]; mouse, in vivo) was “blunted the rise”, the Class [21] was “Sensitive (Sensitive (LC50=2 to 10 μM))” and the “% Survival 2 μM OGM” value ([21]; 72 hours) was 51.7%. For the same compound, the “% Survival 10 μM OGM” value ([21]; 72 hours) was 26.5% and the CC50 ([21]; Homo sapiens, NCI-H460, 72 hours, read-out: LC50 (the source's name)) was 2 to 10 µM.
